Like-named read-outs stand apart in the source and are kept apart here.
Experiments:
Phakopsora pachyrhizi [1] = assay: Greenhouse: protective control of soybean rust on soybeans caused by Phakopsora pachyrhizi (PHAKPA P2); type: in vivo; settings: spray 2 days before inoculation, F129L strain, % diseased leaf area, untreated 97
Alternaria solani = type: cell-based
[2] = system: Colletotrichum orbiculare; assay: Microtest: activity against anthracnose pathogen Colletotrichum orbiculare (COLLLA); type: cell-based; settings: relative growth vs active compound-free control (100%), 405 nm, 7 days after inoculation, 18°C
Puccinia recondita [3] = type: in vivo; settings: for PUCCRT Disease level (%) K4 at 63 ppm: wheat, curative spray 4 days after inoculation, % diseased leaf area, untreated 85
Pyricularia oryzae = type: cell-based; settings: PYRIOR, relative growth vs active compound-free control (100%), 405 nm, 7 days after inoculation, 18°C
Puccinia recondita [4] = type: in vivo; settings: for PUCCRT Disease level (%) P1 at 63 ppm: wheat, preventative spray 1 day before inoculation, % diseased leaf area, untreated 82
Septoria tritici = assay: Microtest: activity against wheat leaf blotch pathogen Septoria tritici (SEPTTR); type: cell-based; settings: relative growth vs active compound-free control (100%), 405 nm, 7 days after inoculation, 18°C
Phakopsora pachyrhizi [5] = assay: Greenhouse: protective control of soybean rust on soybeans caused by Phakopsora pachyrhizi (PHAKPA P6); type: in vivo; settings: spray six days before inoculation, F129L strain, % diseased leaf area, untreated 74
Leptosphaeria nodorum = assay: Microtest: activity against Leptosphaeria nodorum causing wheat leaf spots (LEPTNO); type: cell-based; settings: relative growth vs active compound-free control (100%), 405 nm, 7 days after inoculation, 18°C
Sclerotinia sclerotiorum = type: cell-based
[6] = system: Qol (F129L) resistant isolate of Pyrenophora teres; assay: Microtest: activity against resistant isolate of net blotch pathogen Pyrenophora teres (PYRNTE res); type: cell-based; settings: relative growth vs active compound-free control (100%), 405 nm, 7 days after inoculation, 18°C
[7] = system: Qol (G143A) resistant isolate of Septoria tritici; assay: Microtest: activity against resistant isolate of Septoria tritici (SEPTTR res); type: cell-based; settings: relative growth vs active compound-free control (100%), 405 nm, 7 days after inoculation, 18°C
Cercospora sojina = type: cell-based
Phytophthora infestans = type: cell-based; settings: PHYTIN, relative growth vs active compound-free control (100%), 405 nm, 7 days after inoculation, 18°C
[8] = system: Qol (F129L) resistant isolate of Alternaria solani; assay: Microtest: activity against resistant isolate of Alternaria solani (ALTESO res); type: cell-based; settings: relative growth vs active compound-free control (100%), 405 nm, 7 days after inoculation, 18°C
[9] = ALTESO, relative growth vs active compound-free control (100%), 405 nm, 7 days after inoculation, 18°C
[10] = SCLESC, relative growth vs active compound-free control (100%), 405 nm, 7 days after inoculation, 18°C

Compound: (E)-4-(3-Chlorophenyl)-N-[[2-[(E)-C-(1,4,2-dioxazin-3-yl)-N-methoxy-carbonimido-yl]phenyl]methoxy]but-3-yn-2-imine [Compound 8]
- PHAKPA Disease level (%) P2 at 63 ppm (Phakopsora pachyrhizi [1]): 7%
- Growth (%) at 125 ppm (Alternaria solani; [9]): 2%
- Growth (%) at 125 ppm [2]: 0%
- PUCCRT Disease level (%) K4 at 63 ppm (Puccinia recondita [3]): 28%
- Growth (%) at 125 ppm (Pyricularia oryzae): 0%
- PUCCRT Disease level (%) P1 at 63 ppm (Puccinia recondita [4]): 0%
- Growth (%) at 125 ppm (Septoria tritici): 0%
- PHAKPA Disease level (%) P6 at 63 ppm (Phakopsora pachyrhizi [5]): 12%
- Growth (%) at 125 ppm (Leptosphaeria nodorum): 2%
- Growth (%) at 125 ppm (Sclerotinia sclerotiorum; [10]): 19%

Compound: Ethyl N-[2-[[(E)-[3-(4-chlorophenyl)-1-methyl-prop-2-ynylidene]amino]oxymethyl]-phenyl]-N-methoxy-carbamate [Compound 5]
- PHAKPA Disease level (%) P2 at 63 ppm (Phakopsora pachyrhizi [1]): 43%
- Growth (%) at 125 ppm (Alternaria solani; [9]): 10%
- Growth (%) at 125 ppm [2]: 0%
- PUCCRT Disease level (%) K4 at 63 ppm (Puccinia recondita [3]): 70%
- Growth (%) at 125 ppm (Pyricularia oryzae): 0%
- PUCCRT Disease level (%) P1 at 63 ppm (Puccinia recondita [4]): 10%
- Growth (%) at 125 ppm (Septoria tritici): 0%
- PHAKPA Disease level (%) P6 at 63 ppm (Phakopsora pachyrhizi [5]): 48%
- Growth (%) at 125 ppm (Leptosphaeria nodorum): 0%
- Growth (%) at 125 ppm (Sclerotinia sclerotiorum; [10]): 12%
- Growth (%) at 125 ppm [6]: 0%

Compound: C/C(C#Cc1ccc(Cl)cc1)=N\OCc1ccccc1-n1nnn(C)c1=O [Compound 1, 1-[2-[[(E)-[3-(4-Chlorophenyl)-1-methyl-prop-2-ynylidene]amino]oxymethyl]phenyl]-4-methyl-tetrazol-5-one]
- Growth (%) at 125 ppm [7]: 13%
- Growth (%) at 125 ppm (Pyricularia oryzae): 0%
- Growth (%) at 125 ppm (Septoria tritici): 5%
- Growth (%) at 125 ppm (Cercospora sojina): 0%
- Growth (%) at 125 ppm (Sclerotinia sclerotiorum): 11%

Compound: COc1nn(C)c(=O)n1-c1ccccc1CO/N=C(\C)C#Cc1cccc(Cl)c1 [Compound 4, 4-[2-[[(E)-[3-(3-Chlorophenyl)-1-methyl-prop-2-ynylidene]amino]oxymethyl]phenyl]-5-methoxy-2-methyl-1,2,4-triazol-3-one]
- Growth (%) at 125 ppm (Phytophthora infestans): 0%
- Growth (%) at 125 ppm [7]: 0%
- Growth (%) at 125 ppm (Alternaria solani): 4%
- PUCCRT Disease level (%) K4 at 16 ppm (Puccinia recondita [3]): 31%
- Growth (%) at 125 ppm (Pyricularia oryzae): 0%
- PUCCRT Disease level (%) P1 at 16 ppm (Puccinia recondita [4]): 13%
- Growth (%) at 125 ppm (Septoria tritici): 0%
- Growth (%) at 125 ppm (Leptosphaeria nodorum): 7%
- Growth (%) at 125 ppm [8]: 16%
- Growth (%) at 125 ppm (Sclerotinia sclerotiorum): 17%
- Growth (%) at 125 ppm [6]: 0%

Compound: Ethyl N-[2-[[(E)-[3-(3-chlorophenyl)-1-methyl-prop-2-ynylidene]amino]oxymethyl]-phenyl]-N-methoxy-carbamate [Compound 6]
- PHAKPA Disease level (%) P2 at 63 ppm (Phakopsora pachyrhizi [1]): 11%
- Growth (%) at 125 ppm (Alternaria solani; [9]): 0%
- Growth (%) at 125 ppm [2]: 0%
- PUCCRT Disease level (%) K4 at 63 ppm (Puccinia recondita [3]): 50%
- Growth (%) at 125 ppm (Pyricularia oryzae): 0%
- PUCCRT Disease level (%) P1 at 63 ppm (Puccinia recondita [4]): 7%
- Growth (%) at 125 ppm (Septoria tritici): 0%
- PHAKPA Disease level (%) P6 at 63 ppm (Phakopsora pachyrhizi [5]): 13%
- Growth (%) at 125 ppm (Leptosphaeria nodorum): 0%
- Growth (%) at 125 ppm (Sclerotinia sclerotiorum; [10]): 17%
- Growth (%) at 125 ppm [6]: 0%

Compound: COc1nn(C)c(=O)n1-c1ccccc1CO/N=C(\C)C#Cc1ccc(Cl)cc1 [Compound 2, 4-[2-[[(E)-[3-(4-Chlorophenyl)-1-methyl-prop-2-ynylidene]amino]oxymethyl]phenyl]-5-methoxy-2-methyl-1,2,4-triazol-3-one]
- PUCCRT Disease level (%) K4 at 16 ppm (Puccinia recondita [3]): 30%
- Growth (%) at 125 ppm (Pyricularia oryzae): 16%
- PUCCRT Disease level (%) P1 at 16 ppm (Puccinia recondita [4]): 11%

Compound: (E)-4-(4-chlorophenyl)-N-[[2-[(E)-C-(1,4,2-dioxazin-3-yl)-N-methoxy-carbonimidoyl]-phenyl]methoxy]but-3-yn-2-imine [Compound 7]
- PHAKPA Disease level (%) P2 at 63 ppm (Phakopsora pachyrhizi [1]): 33%
- Growth (%) at 125 ppm (Alternaria solani; [9]): 1%
- Growth (%) at 125 ppm [2]: 0%
- PUCCRT Disease level (%) K4 at 63 ppm (Puccinia recondita [3]): 53%
- Growth (%) at 125 ppm (Pyricularia oryzae): 0%
- PUCCRT Disease level (%) P1 at 63 ppm (Puccinia recondita [4]): 13%
- Growth (%) at 125 ppm (Septoria tritici): 0%
- PHAKPA Disease level (%) P6 at 63 ppm (Phakopsora pachyrhizi [5]): 32%
- Growth (%) at 125 ppm (Leptosphaeria nodorum): 0%
- Growth (%) at 125 ppm (Sclerotinia sclerotiorum; [10]): 1%

From EP4242199A1 (priority 2022, dated 2023)
